Test results reported in patent publication US10045980B2, “Inhibitor of p38 map kinase” (RESPIVERT LTD, priority 2014, dated 2018).

Legend:
[1] = biological target: T1, p38MAPKγ (MAPK12) (Homo sapiens, UniProt P53778); experiment: p38 MAPKγ enzyme inhibition (Z-LYTE FRET); format: biochemical
T1 construct: purchased Life Technologies
T1 sequence (P53778 1-367): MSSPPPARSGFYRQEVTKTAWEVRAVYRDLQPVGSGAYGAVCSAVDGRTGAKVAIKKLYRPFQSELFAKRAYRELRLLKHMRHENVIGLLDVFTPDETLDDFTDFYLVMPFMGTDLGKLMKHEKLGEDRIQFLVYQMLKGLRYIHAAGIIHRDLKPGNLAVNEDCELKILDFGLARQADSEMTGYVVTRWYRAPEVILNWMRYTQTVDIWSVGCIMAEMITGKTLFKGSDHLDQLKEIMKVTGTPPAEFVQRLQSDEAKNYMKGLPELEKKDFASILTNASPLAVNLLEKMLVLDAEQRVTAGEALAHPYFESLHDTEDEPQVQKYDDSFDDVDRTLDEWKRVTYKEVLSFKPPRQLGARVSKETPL
Method: (§1) The enzyme inhibitory activities of the compound disclosed herein were determined by FRET using synthetic peptides labelled with both donor and acceptor fluorophores (Z-LYTE, Life Technologies, Paisley, UK).
The enzyme (800 ng/mL, 2.5 μL) was incubated with the test compound (2.5 μL at either 40 μg/mL, 12 μg/mL, 4 μg/mL, 1.2 μg/mL, 0.4 μg/mL, 0.12 μg/mL, 0.04 μg/mL, 0.012 μg/mL, 0.004 μg/mL or 0.0012 μg/mL) for 2 h at RT. The FRET peptides (8 μM, 2.5 μL), and appropriate ATP solution (2.5 μL, 400 μM) were then added to the enzymes/compound mixtures and incubated for 1 h at RT. Development reagent (protease, 5 μL) was added for 1 h prior to detection in a fluorescence microplate reader (EnVision, Perkin Elmer).
(§2) In all cases, the site-specific protease cleaves non-phosphorylated peptide only and eliminates the FRET signal. Phosphorylation levels of each reaction were calculated using the ratio of coumarin emission (donor) over fluorescein emission (acceptor), for which low ratios indicate high phosphorylation and high ratios indicate low phosphorylation levels.

[2] = biological target: T2, c-Src (Homo sapiens, UniProt P12931); experiment: c-Src enzyme inhibition (Z-LYTE FRET); format: biochemical
T2 construct: purchased Life Technologies
T2 sequence (P12931 whole entry): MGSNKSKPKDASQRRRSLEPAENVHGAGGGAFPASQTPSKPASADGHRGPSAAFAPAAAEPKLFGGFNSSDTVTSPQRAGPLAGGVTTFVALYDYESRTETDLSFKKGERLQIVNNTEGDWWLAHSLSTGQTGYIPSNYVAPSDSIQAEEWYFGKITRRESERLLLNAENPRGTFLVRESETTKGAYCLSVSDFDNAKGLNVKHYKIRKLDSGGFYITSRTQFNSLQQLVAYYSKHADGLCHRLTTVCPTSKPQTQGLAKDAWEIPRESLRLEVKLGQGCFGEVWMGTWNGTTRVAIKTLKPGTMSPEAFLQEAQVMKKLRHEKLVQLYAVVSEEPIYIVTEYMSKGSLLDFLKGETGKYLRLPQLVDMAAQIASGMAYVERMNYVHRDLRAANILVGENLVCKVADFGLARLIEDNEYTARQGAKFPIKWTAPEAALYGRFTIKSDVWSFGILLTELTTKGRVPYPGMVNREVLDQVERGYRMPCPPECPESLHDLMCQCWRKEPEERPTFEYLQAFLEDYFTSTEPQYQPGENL
Method: as §1
The relevant enzyme (1000 ng/mL, 1400 ng/mL or 2000 ng/mL respectively, 2.5 μL) was incubated with the test compound (either 40 μg/mL, 12 μg/mL, 4 μg/mL, 1.2 μg/mL, 0.4 μg/mL, 0.12 μg/mL, 0.04 μg/mL, 0.012 μg/mL, 0.004 μg/mL or 0.0012 μg/mL, 2.5 μL each) for 2 h at RT. The FRET peptides (8 μM, 2.5 μL), and appropriate ATP solutions (2.5 μL, 800 μM for c-Src, and 60 μM ATP for HCK and Syk) were then added to the enzyme/compound mixtures and incubated for 1 h at RT. Development reagent (protease, 5 μL) was added for 1 h prior to detection in a fluorescence microplate reader (EnVision, Perkin Elmer).
as §2

[3] = biological target: T3, GSK 3α enzyme isoform (Homo sapiens, UniProt P49840); experiment: GSK 3α enzyme inhibition (Z-LYTE FRET); format: biochemical; settings: read-out: IC50 Values for Enzyme Inhibition GSK3α
T3 construct: purchased Life Technologies
T3 sequence (P49840 whole entry, canonical isoform): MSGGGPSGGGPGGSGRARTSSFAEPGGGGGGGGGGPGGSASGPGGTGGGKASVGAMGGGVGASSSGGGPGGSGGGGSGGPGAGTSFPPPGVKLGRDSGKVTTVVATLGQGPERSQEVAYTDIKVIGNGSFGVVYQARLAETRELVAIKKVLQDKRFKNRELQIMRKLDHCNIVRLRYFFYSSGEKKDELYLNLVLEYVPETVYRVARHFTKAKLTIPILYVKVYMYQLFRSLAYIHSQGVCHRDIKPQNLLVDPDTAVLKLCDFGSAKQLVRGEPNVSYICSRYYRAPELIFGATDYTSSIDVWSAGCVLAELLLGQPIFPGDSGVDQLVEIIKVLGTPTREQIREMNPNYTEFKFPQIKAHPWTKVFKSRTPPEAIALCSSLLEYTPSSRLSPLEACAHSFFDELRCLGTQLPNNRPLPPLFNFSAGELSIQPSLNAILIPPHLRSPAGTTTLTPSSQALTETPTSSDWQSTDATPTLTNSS
Method: as §1
Development reagent (protease, 5 μL) was added for 1 h prior to detection in a fluorescence microplate reader (EnVision, Perkin Elmer).
as §2

[4] = test system: d-U937 cells; experiment: LPS-induced TNFα/IL-8 release in d-U937 cells; format: cell-based; settings: Homo sapiens
Method: U937 cells, a human monocytic cell line, were differentiated into macrophage-type cells by incubation with PMA (100-200 ng/mL) for 48 to 72 hr. Cells were pre-incubated with final concentrations of test compound for 2 h and were then stimulated with LPS (0.1 μg/mL; from E. Coli: 0111:64, Sigma) for 4 h. The supernatant was collected for determination of TNFα and IL-8 concentrations by sandwich ELISA (Duo-set, R&D systems). […] The relative 50% effective concentration (REC50) was determined from the resultant concentration-response curve. The inhibition of IL-8 production was calculated at each concentration of test compound by comparison with vehicle control.

[5] = test system: BEAS2B cells infected with human rhinovirus RV16; experiment: Rhinovirus-induced IL-8 release; format: cell-based; settings: FIG. 9
Method: Human rhinovirus RV16 is obtained from the American Type Culture Collection (Manassas, Va.). Viral stocks are generated by infecting MRC5 cells with HRV until 80% of the cells were cytopathic.
BEAS2B cells are infected with HRV at an MOI of 1.2 and incubated for 1 h at 33° C. with gentle shaking for to promote absorption. The cells are then washed with PBS, fresh media added and the cells are incubated for a further 72 h. The supernatant is collected for assay of IL-8 concentrations using a Duoset ELISA development kit (R&D systems, Minneapolis, Minn.). Compounds are added 2 h before HRV infection and 1 h after infection when non-infected HRV is washed out.

CCc1cncc(Nc2cc(COc3ccc(NC(=O)Nc4cc(C(C)(C)C)nn4-c4ccc(C)cc4)c4ccccc34)ccn2)n1 [Compound of the invention, 1-(3-(tert-butyl)-1-(p-tolyl)-1H-pyrazol-5-yl)-3-(4-((2-((6-ethylpyrazin-2-yl)amino)pyridin-4-yl)methoxy)naphthalen-1-yl)urea] gave an IC50 [1] of 152 nM, an IC50 [2] of 199 nM and an IC50 [3] greater than 15100 nM. For the same compound, the EC50 ([4]; dU937, 4 h, read-out: LPS Induced Release TNFα REC50 (dU937)) was 5.5 nM, the IC50 ([4]; dU937, d-U937 cells, LPS 0.1 μg/mL, 4 h) was 11.4 nM and the “inhibition of HRV-induced IL-8” value [5] was “dose-dependent inhibition”.
